Data from PMC6364417, “Kinase inhibitor library screening identifies synergistic drug combinations effective in sensitive and resistant melanoma cells” (Journal of Experimental & Clinical Cancer Research : CR, 2019).

Legend:
Assay in all cases: Kinase inhibitor library screening, PrestoBlue cell viability, 1 or 10 μM, 72 h
[1] = tested on: 501Mel-GP cells (Dabrafenib-resistant); settings: 72 h; for viability at 1 µM / viability at 10 µM: Homo sapiens; for viability at 1 µM: read-out: cell viability, 501Mel GP, 1μΜ; for viability at 10 µM: read-out: cell viability, 501Mel GP, 10μΜ
Description: (§1) After 72 h of treatment, cell viability was assessed using the PrestoBlue Cell Viability Reagent (ThermoFisher Scientific). Measurements were performed with the CLARIOstar Monochromator microplate reader (BMG Labtech).
(§2) Kinase inhibitor library screening. […] Each cell line was treated in its sensitive form (parental), and also as 2 resistant derivatives, which were made resistant to either Vemurafenib (XP) or Dabrafenib (GP). Drugs were added at 2 different concentrations, 1 and 10 μM, for 72 h and cell viability was assessed using the PrestoBlue Cell Viability assay. Results are depicted as % viability compared to untreated cells. Each cell line was analyzed at least in duplicate. […] (XLSX 95 kb)

[2] = tested on: 501Mel-XP cells (Vemurafenib-resistant); settings: 72 h; for viability at 1 µM / viability at 10 µM: Homo sapiens; for viability at 1 µM: read-out: cell viability, 501Mel XP, 1μΜ; for viability at 10 µM: read-out: cell viability, 501Mel XP, 10μΜ
Description: as §1, §2

[3] = tested on: A375-GP cells (Dabrafenib-resistant); settings: for viability at 1 µM / viability at 10 µM: Homo sapiens, A-375, 72 h; for viability at 1 µM: read-out: cell viability, A375 GP, 1μΜ; for viability at 10 µM: read-out: cell viability, A375 GP, 10μΜ
Description: as §1, §2

[4] = tested on: A375 cells (parental); settings: for viability at 1 µM / viability at 10 µM: Homo sapiens, A-375, 72 h; for viability at 1 µM: read-out: cell viability, A375 Parental, 1μΜ; for viability at 10 µM: read-out: cell viability, A375 Parental, 10μΜ
Description: as §1, §2

[5] = tested on: 501Mel cells (parental); settings: 72 h; for viability at 1 µM / viability at 10 µM: Homo sapiens; for viability at 1 µM: read-out: cell viability, 501Mel Parental, 1μΜ; for viability at 10 µM: read-out: cell viability, 501Mel Parental, 10μΜ
Description: as §1, §2

[6] = tested on: IGR37-GP cells (Dabrafenib-resistant); settings: for viability at 1 µM / viability at 10 µM: Homo sapiens, IGR-37, 72 h; for viability at 1 µM: read-out: cell viability, IGR37 GP, 1μΜ; for viability at 10 µM: read-out: cell viability, IGR37 GP, 10μΜ
Description: as §1, §2

[7] = tested on: IGR37 cells (parental); settings: for viability at 1 µM / viability at 10 µM: Homo sapiens, IGR-37, 72 h; for viability at 1 µM: read-out: cell viability, IGR37 Parental, 1μΜ; for viability at 10 µM: read-out: cell viability, IGR37 Parental, 10μΜ
Description: as §1, §2

[8] = tested on: IGR37-XP cells (Vemurafenib-resistant); settings: for viability at 1 µM / viability at 10 µM: Homo sapiens, IGR-37, 72 h; for viability at 1 µM: read-out: cell viability, IGR37 XP, 1μΜ; for viability at 10 µM: read-out: cell viability, IGR37 XP, 10μΜ
Description: as §1, §2

[9] = tested on: A375-XP cells (Vemurafenib-resistant); settings: for viability at 1 µM / viability at 10 µM: Homo sapiens, A-375, 72 h; for viability at 1 µM: read-out: cell viability, A375 XP, 1μΜ; for viability at 10 µM: read-out: cell viability, A375 XP, 10μΜ
Description: as §1, §2

COc1ccc(-c2ccc3c(N4CCOC[C@@H]4C)nc(N4CCOC[C@@H]4C)nc3n2)cc1CO [AZD8055]
Cell viability in kinase inhibitor library screening, 501Mel GP, 1μΜ ([1]; 501Mel GP, 1μΜ, in %): 22.1
Cell viability in kinase inhibitor library screening, 501Mel GP, 10μΜ ([1]; 501Mel GP, 10μΜ, in %): 11.9
Cell viability in kinase inhibitor library screening, 501Mel XP, 1μΜ ([2]; 501Mel XP, 1μΜ, in %): 13.9
Cell viability in kinase inhibitor library screening, 501Mel XP, 10μΜ ([2]; 501Mel XP, 10μΜ, in %): 4.6
Cell viability in kinase inhibitor library screening, A375 GP, 1μΜ ([3]; A375 GP, 1μΜ, 72 h): 25.5
Cell viability in kinase inhibitor library screening, A375 GP, 10μΜ ([3]; A375 GP, 10μΜ, 72 h): 16.6
Cell viability in kinase inhibitor library screening, A375 Parental, 10μΜ ([4]; A375 Parental, 10μΜ, 72 h): 19.2
Cell viability in kinase inhibitor library screening, A375 Parental, 1μΜ ([4]; A375 Parental, 1μΜ, 72 h): 23.1
Cell viability in kinase inhibitor library screening, 501Mel Parental, 1μΜ ([5]; 501Mel Parental, 1μΜ, in %): 17.3
Cell viability in kinase inhibitor library screening, 501Mel Parental, 10μΜ ([5]; 501Mel Parental, 10μΜ, in %): 8.1
Cell viability in kinase inhibitor library screening, IGR37 GP, 10μΜ ([6]; IGR37 GP, 10μΜ, 72 h): 29.5%
Cell viability in kinase inhibitor library screening, IGR37 GP, 1μΜ ([6]; IGR37 GP, 1μΜ, 72 h, in %): 45.1
Cell viability in kinase inhibitor library screening, IGR37 Parental, 1μΜ ([7]; IGR37 Parental, 1μΜ, 72 h, in %): 29.8
Cell viability in kinase inhibitor library screening, IGR37 Parental, 10μΜ ([7]; IGR37 Parental, 10μΜ, 72 h, in %): 25.2
Cell viability in kinase inhibitor library screening, IGR37 XP, 10μΜ ([8]; IGR37 XP, 10μΜ, 72 h): 12.5%
Cell viability in kinase inhibitor library screening, IGR37 XP, 1μΜ ([8]; IGR37 XP, 1μΜ, 72 h, in %): 34.7
Cell viability in kinase inhibitor library screening, A375 XP, 1μΜ ([9]; A375 XP, 1μΜ, 72 h): 21.6
Cell viability in kinase inhibitor library screening, A375 XP, 10μΜ ([9]; A375 XP, 10μΜ, 72 h): 17.3

CNC(=O)CN1CCC(Oc2cc3c(Nc4cccc(Cl)c4F)ncnc3cc2OC)CC1 [AZD8931]
viability at 1 µM [1]: 100%
viability at 10 µM [1]: 79.7%
viability at 1 µM [2]: 94.5%
viability at 10 µM [2]: 68.3%
viability at 1 µM [3]: 103%
viability at 10 µM [3]: 74.8%
viability at 1 µM [4]: 96.7%
viability at 10 µM [4]: 83.8%
viability at 1 µM [5]: 90.5%
viability at 10 µM [5]: 86%
viability at 1 µM [6]: 90.4%
viability at 10 µM [6]: 78%
viability at 1 µM [7]: 96.3%
viability at 10 µM [7]: 98.9%
viability at 1 µM [8]: 71.9%
viability at 10 µM [8]: 50%
viability at 1 µM [9]: 96.5%
viability at 10 µM [9]: 86%

CN(C)C/C=C/C(=O)Nc1cc2c(Nc3ccc(F)c(Cl)c3)ncnc2cc1O[C@H]1CCOC1 [Afatinib (BIBW2992)]
viability at 1 µM [1]: 98.8%
viability at 10 µM [1]: 6.2%
viability at 1 µM [2]: 88.6%
viability at 10 µM [2]: -0.4%
viability at 1 µM [3]: 94.1%
viability at 10 µM [3]: 12.6%
viability at 1 µM [4]: 100%
viability at 10 µM [4]: 13.6%
viability at 1 µM [5]: 102%
viability at 10 µM [5]: 1.5%
viability at 1 µM [6]: 96.9%
viability at 10 µM [6]: 20.9%
viability at 1 µM [7]: 103%
viability at 10 µM [7]: 44.5%
viability at 1 µM [8]: 94.7%
viability at 10 µM [8]: 10%
viability at 1 µM [9]: 102%
viability at 10 µM [9]: 4.1%

S=C(NCc1ccc2c(c1)OCO2)N1CCN(c2ncnc3c2oc2ccccc23)CC1 [Amuvatinib (MP-470)]
cell viability (kinase inhibitor library screening) ([1]; 501Mel GP, 1μΜ): 105.2%
cell viability (kinase inhibitor library screening) ([1]; 501Mel GP, 10μΜ): 86.9%
cell viability (kinase inhibitor library screening) ([2]; 501Mel XP, 1μΜ): 100.3%
cell viability (kinase inhibitor library screening) ([2]; 501Mel XP, 10μΜ): 88.3%
cell viability (kinase inhibitor library screening) ([3]; A375 GP, 1μΜ, 72 h): 95.9%
cell viability (kinase inhibitor library screening) ([3]; A375 GP, 10μΜ, 72 h): 84.4%
cell viability (kinase inhibitor library screening) ([4]; A375 Parental, 10μΜ, 72 h): 84.8%
cell viability (kinase inhibitor library screening) ([4]; A375 Parental, 1μΜ, 72 h): 97.4%
cell viability (kinase inhibitor library screening) ([5]; 501Mel Parental, 1μΜ): 98.9%
cell viability (kinase inhibitor library screening) ([5]; 501Mel Parental, 10μΜ): 98.9%
cell viability (kinase inhibitor library screening) ([6]; IGR37 GP, 1μΜ, 72 h): 94.7%
cell viability (kinase inhibitor library screening) ([6]; IGR37 GP, 10μΜ, 72 h): 95.7%
cell viability (kinase inhibitor library screening) ([7]; IGR37 Parental, 1μΜ, 72 h): 95.9%
cell viability (kinase inhibitor library screening) ([7]; IGR37 Parental, 10μΜ, 72 h): 97.0%
cell viability (kinase inhibitor library screening) ([8]; IGR37 XP, 10μΜ, 72 h): 77.9%
cell viability (kinase inhibitor library screening) ([9]; A375 XP, 1μΜ, 72 h): 104.7%
cell viability (kinase inhibitor library screening) ([9]; A375 XP, 10μΜ, 72 h): 94.9%
